Results: US20120122727A1, “IN VITRO METHOD FOR PREDICTING WHETHER A COMPOUND IS GENOTOXIC IN VIVO” (priority 2009, published 2012)

Test system: primary mouse hepatocytes
Experiment: Gene expression (Affymetrix Mouse Genome 430 2.0) in primary mouse hepatocytes, true vs false GTX, 24 h and 48 h
Conditions: log2, corrected for vehicle control

## Nc1ccc([N+](=O)[O-])cc1N [4-NP, 4-Nitro-o-phenylenediamine]
24 h average
  Gene expression data AF000969 (Cadps2): −0.6839
  Gene expression data AF022072 (Grb10): 0.8486
  Gene expression data AF065917 (Lif): −0.4573
  Gene expression data AF204959 (Cyp3a25 /// LOC622249): −2.025
  Gene expression data AF297615 (Ggta1): −0.2797
  Gene expression data AI594683 (Dmn): −0.3517
  Gene expression data AI596632 (Ptprg /// LOC632664): −0.4962
  Gene expression data AI987929 (Ndrg1): 2.65
  Gene expression data AK004419 (Fbxl17): −0.0775
  Gene expression data AK005731 (1700007K13Rik): −0.5111
  Gene expression data AK007766 (1810044A24Rik): −0.1697
  Gene expression data AK007854 (1810053B23Rik): −1.736
  Gene expression data AK009736 (Gpr137b /// LOC664862 /// LOC673335): 1.582
  Gene expression data AK010447 (Smyd3): 0.4967
  Gene expression data AK014608 (4632434l11Rik): 0.2958
  Gene expression data AK019979 (2610528E23Rik): 0.9384
  Gene expression data AV095209 (Mthfd1l): 0.9072
  Gene expression data AV141095 (1110033M05Rik): 0.1789
  Gene expression data AV173571 (1700106N22Rik): −0.003133
  Gene expression data AV219418 (Ldhb): −1.032
  Gene expression data AV223474 (Zdhhc14): −0.08437
  Gene expression data AV298304 (Homez): −0.5839
  Gene expression data AV327248 (Zfp365 /// LOC674611): −0.08917
  Gene expression data AV377066 (9130221J18Rik): −1.695
  Gene expression data AW240761 (Tbc1d5): 0.02697
  Gene expression data AW543460 (Pard3): 0.9127
  Gene expression data AW543723: 0.6706
  Gene expression data AW986246 (Maoa): 1.7055
  Gene expression data BB027848 (4732466D17Rik): −1.7858
  Gene expression data BB043558 (9230114K14Rik): −0.4159
  Gene expression data BB275142 (AW456874): −0.4184
  Gene expression data BB308836 (Ppm1l): 0.03763
  Gene expression data BB318221 (Zdhhc14): 0.0942
  Gene expression data BB463610 (4632434l11Rik): 0.2106
  Gene expression data BB526605 (Mipol1): 1.641
  Gene expression data BB770528 (Rai2): −1.122
  Gene expression data BB821363 (Scfd2): −0.219
  Gene expression data BC004827 (Psat1): 0.5395
  Gene expression data BC008626 (Icam1): −2.248
  Gene expression data BC010462 (BC010462): −0.8654
  Gene expression data BC012247 (Dcxr): −1.5
  Gene expression data BC012260 (Psmf1): 0.1189
  Gene expression data BC015270 (Hist2h3c2): −0.7846
  Gene expression data BC016073 (Cdkal1): 0.3627
  Gene expression data BC016265 (Ube2e2): 0.03433
  Gene expression data BC019882 (Acaa1b): −1.259
  Gene expression data BC025501 (Aaas): −0.2167
  Gene expression data BC025837 (Sbk1): −0.8181
  Gene expression data BC025915 (Cova1): 0.3343
  Gene expression data BC026422 (Tgm1): −0.8176
  Gene expression data BF719766 (Thyn1): −0.2859
  Gene expression data BG065754 (Ccng1): −0.2503
  Gene expression data BG066903 (Kif16b): 1.005
  Gene expression data BG069873 (Gnb1l): −0.1326
  Gene expression data BG070887 (Gtdc1): 0.3432
  Gene expression data BG076151 (Ppm1d): −0.2933
  Gene expression data BG261907 (Large): 0.3643
  Gene expression data BI651416 (Cdc42bpg): −0.0339
  Gene expression data BI660702 (Ell3): −0.609
  Gene expression data BM198879 (Ercc5): −0.3288
  Gene expression data BM230508 (A030007D23Rik): −0.6065
  Gene expression data NM_007987 (Fas): −1.231
  Gene expression data NM_008522 (Ltf): −0.3018
  Gene expression data NM_008576 (Abcc1): 1.696
  Gene expression data NM_011176 (St14): −0.5717
  Gene expression data NM_011316 (Saa4): −0.5909
  Gene expression data NM_012006 (Acot1): −1.4501
  Gene expression data NM_013866 (Zfp385): −0.2808
  Gene expression data NM_018770 (Igsf4a): 0.3868
  Gene expression data NM_021451 (Pmaip1): −1.505
  Gene expression data NM_025770 (Atg10): 1.051
  Gene expression data NM_028803 (Gbe1): 0.3633
  Gene expression data NM_030697 (Ankrd47): 0.1816
  Gene expression data NM_053168 (Trim11): −0.1598
  Gene expression data NM_134188 (Acot2): −0.7637
  Gene expression data Y15910 (Diap2): −0.5398
48 h
  Gene expression AA561726 average: −0.08
  Gene expression AF000969 average: −0.8202
  Gene expression AF022072 average: 0.6062
  Gene expression AF033112 average: 0.152
  Gene expression AF055573 average: −0.1973
  Gene expression AF069954 average: −0.4429
  Gene expression AF297615 average: −1.352
  Gene expression AF335325 average: 0.5071
  Gene expression AI594683 average: −0.4763
  Gene expression AI747296 average: −0.3288
